# Measurements published in DBAASP.
# Key:
# Assay in all cases: ≥ marks a high value that may be exact or a test limit, other limits are often not marked, values filed in µg/mL are converted to µM
# [1] = system: Micrococcus luteus ATCC 10240
# [2] = system: Shigella flexneri CMCC 51572
# [3] = system: Escherichia coli DSM 1103
# [4] = system: Acinetobacter baumannii ICB 9250
# Escherichia coli JJ2487 = system: Escherichia coli JJ2487
# [5] = system: Pseudomonas aeruginosa ATCC 27853
# [6] = system: Klebsiella pneumoniae ATCC 12657
# [7] = system: Enterococcus faecalis ATCC 29212
# [8] = system: Enterobacter cloacae Ha089
# [9] = system: Shigella dysenteriae CMCC 51252
# Escherichia coli = system: Escherichia coli
# Escherichia coli Neumann = system: Escherichia coli Neumann
# [10] = system: Pseudomonas aeruginosa DSM 3227
# [11] = system: Acinetobacter baumannii Ab1408
# Escherichia coli BL21AI = system: Escherichia coli BL21AI
# Escherichia coli MC1061 = system: Escherichia coli MC1061
# [12] = system: Klebsiella pneumoniae ATCC 27799
# [13] = system: Enterobacter cloacae 34654
# Escherichia coli J2210 = system: Escherichia coli J2210
# [14] = system: Enterobacter cloacae Ha185
# [15] = system: Klebsiella pneumoniae CMCC 46117
# [16] = system: Klebsiella pneumoniae 57 USA
# Klebsiella pneumoniae = system: Klebsiella pneumoniae
# [17] = system: Staphylococcus aureus Sa1390
# [18] = system: Acinetobacter baumannii ICB 14067
# [19] = system: Bacillus subtilis ATCC 63501
# Escherichia coli UB1005 = system: Escherichia coli UB1005
# [20] = system: Shigella flexneri ATCC 12022
# [21] = system: Salmonella enterica subsp. enterica serovar Enteritidis MH91989
# [22] = system: Enterobacter cloacae Ha088
# [23] = system: Escherichia coli ATCC 25922
# [24] = system: Stenotrophomonas sp. ICB 7789
# [25] = system: Escherichia coli ATCC 25922 ΔsbmA
# [26] = system: Proteus vulgaris ICB 9095
# [27] = system: Enterobacter cloacae Ha89
# [28] = system: Stenotrophomonas sp. ICB 7569
structure (smiles),measurement,setting,value
CC[C@H](C)[C@H](NC(=O)[C@H](CCCN=C(N)N)NC(=O)[C@H](CCCN=C(N)N)NC(=O)[C@@H]1CCCN1C(=O)[C@@H]1CCCN1C(=O)[C@H](CCCN=C(N)N)NC(=O)[C@@H]1CCCN1C(=O)[C@H](CCCN=C(N)N)NC(=O)[C@@H]1CCCN1C(=O)[C@H](CC(C)C)NC(=O)[C@H](Cc1ccc(O)cc1)NC(=O)[C@@H]1CCCN1C(=O)[C@@H]1CCCN1C(=O)[C@H](CCCCN)NC(=O)[C@H](CC(=O)O)NC(=O)[C@@H](N)C(C)C)C(=O)N[C@@H](Cc1ccc(O)cc1)C(=O)N[C@@H](CC(N)=O)C(=O)N[C@@H](CCCN=C(N)N)C(N)=O [VDKPPYLPRPRPPRRIYNR],MIC,[1],3.35 µM
same,MIC,[2],8 µM
same,MIC,[3],3.35 µM
same,MIC,[4],0.209 µM
same,MIC,Escherichia coli JJ2487,0.251 µM
same,MIC,[5],1.67 µM
same,MIC,[6],0.209 µM
same,MIC,[7],> 512 µM
same,MIC,[8],0.0523 µM
same,MIC,[9],8 µM
same,MIC,Escherichia coli,0.296 µM
same,MIC,Escherichia coli Neumann,0.837 µM
same,MIC,[10],1.67 µM
same,MIC,[11],≥ 53.5 µM
same,MIC,Escherichia coli BL21AI,1.67 µM
same,MIC,Escherichia coli MC1061,0.126 µM
same,MIC,[12],0.418 µM
same,MIC,[13],0.105 µM
same,MIC,Escherichia coli J2210,0.33 µM
same,MIC,[14],0.209 µM
same,MIC,[15],2 µM
same,MIC,[16],0.105 µM
same,MIC,Klebsiella pneumoniae,3.35 µM
same,MIC,[17],≥ 53.5 µM
same,MIC,[18],0.418 µM
same,MIC,[19],≥ 512 µM
same,MIC,Escherichia coli UB1005,0.544 µM
same,MIC,[20],16 µM
same,MIC,[21],0.251 µM
same,MIC,[22],0.0523 µM
same,MIC,[23],8 µM
same,MIC,[24],13.4 µM
same,MIC,[25],16 µM
same,MIC,[26],1.67 µM
same,MIC,[27],0.105 µM
same,MIC,[28],3.35 µM
